These results are taken from PubChem BioAssay (NCI).

Among the test systems are M14 melanoma; A498 renal; SK-MEL-28 melanoma; UACC-257 melanoma; MALME-3M melanoma; SW-620 colon; HCT-15 colon; HS 578T breast; OVCAR-8 ovarian; CAKI-1 renal.
Holding throughout (test): inhibition of tumour cell growth, NCI panel, 48 h

Where “and” joins values, the source holds several entries; their conditions need not be identical. Equal entries are not always repeated.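 Protocol summary: plate cells (96-well), add compound at 5 concentrations, incubate 48 h, interpolate endpoints linearly. GI50: concentration for 50% inhibition of growth. TGI is the concentration that stops growth completely.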

As to `C=C(C)[C@@H]1CC[C@]2(C(=O)O)CC[C@]3(C)[C@H](CC[C@@H]4[C@@]5(C)C[C@@H](CC#Cc6ccc(Br)cc6)C(=O)C(C)(C)[C@@H]5CC[C@]43C)[C@@H]12`, the GI50 was 2.67 µM in the test with M14 melanoma; 2.42 µM in the test on A498 renal; 2.62 µM with SK-MEL-28 melanoma; above 100 µM in the test with UACC-257 melanoma; 3.48 µM with MALME-3M melanoma; 3.73 µM with SW-620 colon. The GI50 in the test with HCT-15 colon is 25.8 µM; with HS 578T breast, 6.26 µM; with OVCAR-8 ovarian, 5.84 µM; with CAKI-1 renal, 15.6 µM. The TGI in the test with M14 melanoma is 12.2 µM; in the test on A498 renal it was 7.29 µM; in the test with SK-MEL-28 melanoma, 8.25 µM; with UACC-257 melanoma it was above 100 µM; in the test on MALME-3M melanoma it was 14.1 µM; with SW-620 colon it was above 100 µM. The TGI with HCT-15 colon, with HS 578T breast, with OVCAR-8 ovarian and with CAKI-1 renal was above 100 µM each time.
As to `C/C1=C\CC[C@@]2(C)O[C@@H]2C[C@@H]2[C@H](C/C(C)=C/CC1)OC(=O)C21CCN=N1` (stereo partly drawn), the GI50 with M14 melanoma, in the test with SK-MEL-28 melanoma, in the test on UACC-257 melanoma, with SW-620 colon, in the test on HCT-15 colon and in the test with HS 578T breast was above 100 µM in each case. Further, the GI50 in the test with OVCAR-8 ovarian and with CAKI-1 renal was above 100 µM in each case. The TGI in the test on M14 melanoma is above 100 µM; in the test on A498 renal it was above 100 µM; with SK-MEL-28 melanoma it was above 100 µM; in the test with UACC-257 melanoma, above 100 µM; in the test with MALME-3M melanoma, above 75 µM; in the test with SW-620 colon, above 100 µM. The TGI in the test on HCT-15 colon is above 100 µM; in the test on HS 578T breast, 75 µM and > 100 µM; in the test on OVCAR-8 ovarian it was above 100 µM; in the test with CAKI-1 renal it was above 100 µM.
As to `Cc1ccc(NSc2ccccc2[N+](=O)[O-])cc1`, the GI50 is 0.146 µM with M14 melanoma; 0.186 µM in the test with A498 renal; 7.71 µM in the test on SK-MEL-28 melanoma; 17.4 µM with UACC-257 melanoma; 3.21 µM in the test on MALME-3M melanoma; 0.137 µM in the test with SW-620 colon. The GI50 in the test with HCT-15 colon is 0.155 µM; with HS 578T breast, 0.921 µM; with OVCAR-8 ovarian, 2.91 µM; with CAKI-1 renal, 1.36 µM. In addition, the TGI in the test with M14 melanoma stood at 15.3 µM; with A498 renal, 3.75 µM; with SK-MEL-28 melanoma, 26.4 µM; in the test with UACC-257 melanoma it was 36.7 µM; in the test on MALME-3M melanoma, 28.9 µM; in the test with SW-620 colon it was 16.2 µM. Besides, the TGI worked out at 14.2 µM with HCT-15 colon, 13.8 µM with HS 578T breast, 36.3 µM with OVCAR-8 ovarian and 25.3 µM in the test with CAKI-1 renal.
`O=C(N/N=c1/ccoc2cccnc12)N1CCN(c2ncccn2)CC1`: the GI50 with M14 melanoma was 0.0831 µM; in the test with A498 renal, 0.503 µM; with SK-MEL-28 melanoma, 0.996 µM; with UACC-257 melanoma, 0.0387 µM; in the test on MALME-3M melanoma, 1.17 µM; with SW-620 colon it was below 0.0131 µM. The GI50 was below 0.01 µM in the test on HCT-15 colon, 1.07 µM in the test with HS 578T breast, 0.031 µM in the test on OVCAR-8 ovarian and 0.425 µM in the test on CAKI-1 renal. The TGI was determined as 2.59 µM in the test on M14 melanoma; 2.87 µM in the test with A498 renal; 13.3 µM with SK-MEL-28 melanoma; 5.15 µM in the test with UACC-257 melanoma; 7.22 µM in the test with MALME-3M melanoma; 10.6 µM with SW-620 colon. The TGI was found to be 10.1 µM in the test with HCT-15 colon, 24.5 µM in the test on HS 578T breast, 6.67 µM in the test with OVCAR-8 ovarian and 7.64 µM with CAKI-1 renal.
On to `O=C(Nc1cccc([N+](=O)[O-])c1)c1ccc2ccccc2c1O`, for which the GI50 in the test on M14 melanoma was 6.81 µM; in the test on A498 renal, 3.27 µM; in the test with SK-MEL-28 melanoma, 6.03 µM; with UACC-257 melanoma it was 2.42 µM; in the test on MALME-3M melanoma, 1.58 µM; in the test with SW-620 colon, 6.8 µM. For the same compound, the GI50 is 9 µM in the test with HCT-15 colon, 2.91 µM with HS 578T breast, 9.66 µM in the test with OVCAR-8 ovarian and 2.48 µM in the test with CAKI-1 renal. Besides, the TGI in the test with M14 melanoma is above 100 µM; in the test on A498 renal it was above 66.7 µM; in the test with SK-MEL-28 melanoma, above 100 µM; in the test on UACC-257 melanoma it was 7.34 µM; with MALME-3M melanoma, 6.28 µM; with SW-620 colon it was above 100 µM. The TGI in the test on HCT-15 colon is above 78.3 µM; in the test on HS 578T breast it was above 28.4 µM; in the test with OVCAR-8 ovarian it was above 100 µM; with CAKI-1 renal it was above 38.4 µM.
`N#CCC12CC=CCC1=C(O)C(=O)c1ccc(O)cc12` (stereo not drawn): the TGI in the test with M14 melanoma, in the test on A498 renal, with SK-MEL-28 melanoma, with UACC-257 melanoma, in the test with MALME-3M melanoma and in the test on SW-620 colon was above 100 µM each time. Besides, the TGI in the test on HCT-15 colon, in the test with HS 578T breast, in the test on OVCAR-8 ovarian and in the test on CAKI-1 renal was above 100 µM throughout.
Turning to `CC(C)(C)c1cn2cccc(C(=O)N3CCN(CC(=O)Nc4ccc(Cl)cc4C(=O)c4ccccc4Cl)CC3)c2n1`, the GI50 is 15.4 µM with M14 melanoma; 3.48 µM in the test on A498 renal; 11 µM in the test with SK-MEL-28 melanoma; 3.51 µM in the test with UACC-257 melanoma; 19.9 µM with MALME-3M melanoma; 7.81 µM in the test with SW-620 colon. Also, the GI50 was 4.81 µM with HCT-15 colon, 4.72 µM in the test with HS 578T breast, 6.84 µM in the test on OVCAR-8 ovarian and 3.31 µM in the test with CAKI-1 renal. In addition, the TGI in the test on M14 melanoma was 33.2 µM; in the test on A498 renal, 9.38 µM; in the test on SK-MEL-28 melanoma, 28.8 µM; in the test with UACC-257 melanoma, 23.5 µM; in the test with MALME-3M melanoma, 38.8 µM; in the test on SW-620 colon it was 29.1 µM. Moreover, the TGI came to 32 µM in the test with HCT-15 colon, 19.9 µM in the test with HS 578T breast, 77.4 µM in the test with OVCAR-8 ovarian and 14.2 µM in the test on CAKI-1 renal.
For `Cn1ccnc1C(=O)/C=C/c1ccc(C(=O)Nc2ccccc2O)cc1`, the GI50 in the test with M14 melanoma was 1.82 µM; in the test on A498 renal, 2.07 µM; with SK-MEL-28 melanoma, 2.11 µM; in the test on UACC-257 melanoma, 2.51 µM; with MALME-3M melanoma it was 1.63 µM; in the test with SW-620 colon it was 1.62 µM. In addition, the GI50 was 1.42 µM with HCT-15 colon, 2.95 µM with HS 578T breast, 3.29 µM in the test on OVCAR-8 ovarian and 1.65 µM in the test with CAKI-1 renal. In addition, the TGI in the test on M14 melanoma came out at 4.28 µM; with A498 renal, 6.18 µM; with SK-MEL-28 melanoma, 5.07 µM; in the test on UACC-257 melanoma, 13.3 µM; in the test on MALME-3M melanoma it was 3.81 µM; in the test with SW-620 colon, 4.12 µM. Further, the TGI with HCT-15 colon came to 5.49 µM; with HS 578T breast it was 15.9 µM; in the test on OVCAR-8 ovarian it was 14.9 µM; with CAKI-1 renal, 4.03 µM.
